{"source": "ChEMBL document CHEMBL5500360", "about": "“Discovery of N-(4-((6-(3,5- Dimethoxyphenyl)-9H-purine derivatives as irreversible covalent FGFR inhibitors” (Eur J Med Chem, 2024)", "key": {"[1]": {"biological_target": "Fibroblast growth factor receptor 2 (Homo sapiens, UniProt P21802)", "sequence (P21802 whole entry)": "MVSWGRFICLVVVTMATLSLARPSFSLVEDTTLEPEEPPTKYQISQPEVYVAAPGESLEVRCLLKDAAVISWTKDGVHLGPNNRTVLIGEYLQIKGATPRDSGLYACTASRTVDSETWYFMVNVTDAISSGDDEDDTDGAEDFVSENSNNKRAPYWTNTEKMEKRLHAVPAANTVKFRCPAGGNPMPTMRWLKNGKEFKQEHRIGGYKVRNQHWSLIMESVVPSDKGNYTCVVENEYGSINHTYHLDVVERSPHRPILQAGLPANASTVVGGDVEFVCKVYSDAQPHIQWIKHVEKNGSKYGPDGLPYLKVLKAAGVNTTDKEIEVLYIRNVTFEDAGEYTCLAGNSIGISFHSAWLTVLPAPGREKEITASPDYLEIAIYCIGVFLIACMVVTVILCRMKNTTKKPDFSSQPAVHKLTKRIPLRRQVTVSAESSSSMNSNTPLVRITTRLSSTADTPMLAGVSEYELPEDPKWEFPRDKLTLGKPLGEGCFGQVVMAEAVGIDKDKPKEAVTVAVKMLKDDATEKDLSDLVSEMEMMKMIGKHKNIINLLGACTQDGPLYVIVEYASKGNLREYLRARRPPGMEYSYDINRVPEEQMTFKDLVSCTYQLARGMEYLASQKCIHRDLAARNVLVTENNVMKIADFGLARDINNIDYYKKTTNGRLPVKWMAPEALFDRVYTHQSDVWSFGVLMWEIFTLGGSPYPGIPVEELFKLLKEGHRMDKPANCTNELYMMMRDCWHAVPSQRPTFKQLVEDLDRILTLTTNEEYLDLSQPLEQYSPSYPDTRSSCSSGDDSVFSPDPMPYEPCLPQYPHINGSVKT", "assay": "Inhibition of FGFR2 (unknown origin) by ELISA"}, "MDA-MB-231 [2]": {"tested_on": "MDA-MB-231", "assay": "Cell cycle arrest in human MDA-MB-231 cells assessed as accumulation of G0-G1 phase cells at 2.5 uM incubated for 24 hrs by […]PI staining based flow cytometric analysis (reference value: 41.83%)", "format": "functional"}, "MDA-MB-231 [3]": {"tested_on": "MDA-MB-231", "assay": "Cell cycle arrest in human MDA-MB-231 cells assessed as accumulation of G2-M phase cells at 2.5 uM incubated for 24 hrs by […]PI staining based flow cytometric analysis (reference value: 16.88%)", "format": "functional"}, "MDA-MB-231 [4]": {"tested_on": "MDA-MB-231", "assay": "Cell cycle arrest in human MDA-MB-231 cells assessed as accumulation of G2-M phase cells at 5 uM incubated for 24 hrs by […]PI staining based flow cytometric analysis (reference value: 16.88%)", "format": "functional"}, "MDA-MB-231 [5]": {"tested_on": "MDA-MB-231", "assay": "Cell cycle arrest in human MDA-MB-231 cells assessed as accumulation of S phase cells at 5 uM incubated for 24 hrs by […]PI staining based flow cytometric analysis (reference value: 41.29%)", "format": "functional"}, "MDA-MB-231 [6]": {"tested_on": "MDA-MB-231", "assay": "Cell cycle arrest in human MDA-MB-231 cells assessed as accumulation of G0-G1 phase cells at 10 uM incubated for 24 hrs by […]PI staining based flow cytometric analysis (reference value: 41.83%)", "format": "functional"}, "MDA-MB-231 [7]": {"tested_on": "MDA-MB-231", "assay": "Cell cycle arrest in human MDA-MB-231 cells assessed as accumulation of S phase cells at 10 uM incubated for 24 hrs by […]PI staining based flow cytometric analysis (reference value: 41.29%)", "format": "functional"}, "MDA-MB-231 [8]": {"tested_on": "MDA-MB-231", "assay": "Induction of apoptosis in human MDA-MB-231 cells assessed as viable cells at 2.5 uM incubated for 24 hrs by Annexin V-FITC/PI staining based flow cytometric analysis (reference value: 99.645%)", "format": "functional", "conditions": "read-out: Activity"}, "MDA-MB-231 [9]": {"tested_on": "MDA-MB-231", "assay": "Induction of apoptosis in human MDA-MB-231 cells assessed as late apoptotic cells at 2.5 uM incubated for 24 hrs by Annexin V-FITC/PI staining based flow cytometric analysis (reference value: 0.161 %)", "format": "functional"}, "MDA-MB-231 [10]": {"tested_on": "MDA-MB-231", "assay": "Induction of apoptosis in human MDA-MB-231 cells assessed as early apoptotic cells at 5 uM incubated for 24 hrs by Annexin V-FITC/PI staining based flow cytometric analysis (reference value: 0.131 %)", "format": "functional"}, "MDA-MB-231 [11]": {"tested_on": "MDA-MB-231", "assay": "Induction of apoptosis in human MDA-MB-231 cells assessed as late apoptotic cells at 5 uM incubated for 24 hrs by Annexin V-FITC/PI staining based flow cytometric analysis (reference value: 0.161 %)", "format": "functional"}, "MDA-MB-231 [12]": {"tested_on": "MDA-MB-231", "assay": "Induction of apoptosis in human MDA-MB-231 cells assessed as viable cells at 10 uM incubated for 24 hrs by Annexin V-FITC/PI staining based flow cytometric analysis (reference value: 99.645%)", "format": "functional", "conditions": "read-out: Activity"}, "MDA-MB-231 [13]": {"tested_on": "MDA-MB-231", "assay": "Induction of apoptosis in human MDA-MB-231 cells assessed as early apoptotic cells at 10 uM incubated for 24 hrs by Annexin V-FITC/PI staining based flow cytometric analysis (reference value: 0.131 %)", "format": "functional"}, "MDA-MB-231 [14]": {"tested_on": "MDA-MB-231", "assay": "Induction of apoptosis in human MDA-MB-231 cells assessed as necrotic cells at 10 uM incubated for 24 hrs by Annexin V-FITC/PI staining based flow cytometric analysis (reference value: 0.063 %)", "format": "functional"}, "MDA-MB-231 [15]": {"tested_on": "MDA-MB-231", "assay": "Induction of ROS production in human MDA-MB-231 cells incubated for 12 hrs by flow cytometry based confocal microscopic analysis", "format": "functional, cell-based", "conditions": "dose 2.5-10 µM"}, "Cell membrane": {"tested_on": "Cell membrane", "assay": "Induction of mitochondrial membrane potential loss in human MDA-MB-231 cells assessed as increase in JC-1 monomer by measuring green fluorescence incubated for 12 hrs by confocal microscopic analysis", "format": "cell membranes", "conditions": "dose 2.5-10 µM"}, "MDA-MB-231 [16]": {"tested_on": "MDA-MB-231", "assay": "Induction of apoptosis in human MDA-MB-231 cells assessed as inhibition of Bcl-2 protein expression incubated for 24 hrs by Western blot analysis", "format": "functional, cell-based", "conditions": "dose 2.5-10 µM"}, "MDA-MB-231 [17]": {"tested_on": "MDA-MB-231", "assay": "Induction of apoptosis in human MDA-MB-231 cells assessed as increase in cleaved-PARP protein expression incubated for 24 hrs by Western blot analysis", "format": "functional, cell-based", "conditions": "dose 2.5-10 µM"}, "MDA-MB-231 [18]": {"tested_on": "MDA-MB-231", "assay": "Effect on FGFR1 protein expression in human MDA-MB-231 cells at 5 to 10 uM incubated for 24 hrs by Western blot analysis", "format": "functional, cell-based", "conditions": "dose 5-10 µM"}, "MDA-MB-231 [19]": {"tested_on": "MDA-MB-231", "assay": "Effect on ERK protein expression in human MDA-MB-231 cells at 5 to 10 uM incubated for 24 hrs by Western blot analysis", "format": "functional, cell-based", "conditions": "dose 5-10 µM"}, "[20]": {"assay": "Metabolic stability in human liver microsomes assessed as parent compound remaining at 1 uM measured after 5 mins by LC-MS/MS analysis", "format": "ADME, Microsome", "conditions": "read-out: Stability"}, "[21]": {"assay": "Metabolic stability in human liver microsomes assessed as parent compound remaining at 1 uM measured after 15 mins by LC-MS/MS analysis", "format": "ADME, Microsome", "conditions": "read-out: Stability"}, "[22]": {"assay": "Metabolic stability in human liver microsomes assessed as parent compound remaining at 1 uM measured after 30 mins by LC-MS/MS analysis", "format": "ADME, Microsome", "conditions": "read-out: Stability"}, "[23]": {"assay": "Metabolic stability in rat liver microsomes assessed as parent compound remaining at 1 uM measured after 15 mins by LC-MS/MS analysis", "format": "ADME, Microsome", "conditions": "read-out: Stability"}, "[24]": {"assay": "Metabolic stability in rat liver microsomes assessed as parent compound remaining at 1 uM measured after 30 mins by LC-MS/MS analysis", "format": "ADME, Microsome", "conditions": "read-out: Stability"}, "[25]": {"assay": "Metabolic stability in rat liver microsomes assessed as parent compound remaining at 1 uM measured after 45 mins by LC-MS/MS analysis", "format": "ADME, Microsome", "conditions": "read-out: Stability"}, "[26]": {"assay": "Metabolic stability in mouse liver microsomes assessed as parent compound remaining at 1 uM measured after 30 mins by LC-MS/MS analysis", "format": "ADME, Microsome", "conditions": "read-out: Stability"}, "[27]": {"assay": "Metabolic stability in mouse liver microsomes assessed as parent compound remaining at 1 uM measured after 45 mins by LC-MS/MS analysis", "format": "ADME, Microsome", "conditions": "read-out: Stability"}, "[28]": {"assay": "Metabolic stability in human liver microsomes assessed as half-life at 1 uM incubated for 45 mins by LC-MS/MS analysis", "format": "ADME, Microsome"}, "[29]": {"assay": "Metabolic stability in rat liver microsomes assessed as intrinsic clearance at 1 uM incubated for 45 mins by LC-MS/MS analysis", "format": "ADME, Microsome", "conditions": "read-out: CLH"}, "[30]": {"assay": "Metabolic stability in mouse liver microsomes assessed as half-life at 1 uM incubated for 45 mins by LC-MS/MS analysis", "format": "ADME, Microsome"}, "[31]": {"assay": "Toxicity in BALB/c athymic nude mouse xenografted with human MDA-MB-231 cells assessed as body weight loss at 10 to 30 mg/kg, po administered once a day via gavage for 21 days", "format": "organism-based", "conditions": "in vivo, 504 h, dose 10-30 mg/kg, time 21 day"}, "[32]": {"assay": "Toxicity in BALB/c athymic nude mouse xenografted with human MDA-MB-231 cells assessed as effect on heart at 10 to 30 mg/kg, po administered once a day via gavage for 21 days by H and E staining based analysis", "format": "organism-based", "conditions": "in vivo, 504 h, dose 10-30 mg/kg, time 21 day"}, "[33]": {"assay": "Toxicity in BALB/c athymic nude mouse xenografted with human MDA-MB-231 cells assessed as effect on spleen at 10 to 30 mg/kg, po administered once a day via gavage for 21 days by H and E staining based analysis", "format": "organism-based", "conditions": "in vivo, 504 h, dose 10-30 mg/kg, time 21 day"}, "MDA-MB-435": {"tested_on": "MDA-MB-435", "assay": "cells", "conditions": "Homo sapiens, MDA-MB-435, 72 h", "description": "Antiproliferative activity against human MDA-MB-435 cells assessed as inhibition of cell growth incubated for 72 hrs by MTT assay"}, "HepG2": {"tested_on": "HepG2", "assay": "cells", "conditions": "Homo sapiens, HepG2, 72 h"}}, "note": "Active and inactive are the calls of the source. No cut-off for these calls is given here.", "data": [{"smiles": "C=CC(=O)Nc1ccc(Cn2cnc3c(-c4cc(OC)cc(OC)c4)ncnc32)cc1", "values": [{"measurement": "IC50", "setting": "[1]", "result": 0.00089, "unit": "µM"}, {"measurement": "Activity", "setting": "MDA-MB-231 [2]", "result": 50.81, "unit": "%"}, {"measurement": "Activity", "setting": "MDA-MB-231 [3]", "result": 14.94, "unit": "%"}, {"measurement": "Activity", "setting": "MDA-MB-231 [4]", "result": 10.68, "unit": "%"}, {"measurement": "Activity", "setting": "MDA-MB-231 [5]", "result": 22.82, "unit": "%"}, {"measurement": "Activity", "setting": "MDA-MB-231 [6]", "result": 73.78, "unit": "%"}, {"measurement": "Activity", "setting": "MDA-MB-231 [7]", "result": 10.73, "unit": "%"}, {"measurement": "viability at 2.5 µM", "setting": "MDA-MB-231 [8]", "result": 64.9, "unit": "%"}, {"measurement": "Activity", "setting": "MDA-MB-231 [9]", "result": 6.16, "unit": "%"}, {"measurement": "Activity", "setting": "MDA-MB-231 [10]", "result": 34.92, "unit": "%"}, {"measurement": "Activity", "setting": "MDA-MB-231 [11]", "result": 14.25, "unit": "%"}, {"measurement": "viability at 10 µM", "setting": "MDA-MB-231 [12]", "result": 37.2, "unit": "%"}, {"measurement": "Activity", "setting": "MDA-MB-231 [13]", "result": 45.4, "unit": "%"}, {"measurement": "Activity", "setting": "MDA-MB-231 [14]", "result": 1.66, "unit": "%"}, {"measurement": "Activity", "setting": "MDA-MB-231 [15]", "result": "Dose-Dependent Effect"}, {"measurement": "Activity", "setting": "Cell membrane", "result": "Dose-Dependent Effect"}, {"measurement": "Activity", "setting": "MDA-MB-231 [16]", "result": "Dose-Dependent Effect"}, {"measurement": "Activity", "setting": "MDA-MB-231 [17]", "result": "Dose-Dependent Effect"}, {"measurement": "Activity", "setting": "MDA-MB-231 [18]", "result": "inactive"}, {"measurement": "Activity", "setting": "MDA-MB-231 [19]", "result": "inactive"}, {"measurement": "remaining at 5 min, 1 µM", "setting": "[20]", "result": 85, "unit": "%"}, {"measurement": "remaining at 0.25 h, 1 µM", "setting": "[21]", "result": 63.5, "unit": "%"}, {"measurement": "remaining at 0.5 h, 1 µM", "setting": "[22]", "result": 43.7, "unit": "%"}, {"measurement": "remaining at 0.25 h, 1 µM", "setting": "[23]", "result": 40, "unit": "%"}, {"measurement": "remaining at 0.5 h, 1 µM", "setting": "[24]", "result": 18.6, "unit": "%"}, {"measurement": "remaining at 0.75 h, 1 µM", "setting": "[25]", "result": 9.41, "unit": "%"}, {"measurement": "remaining at 0.5 h, 1 µM", "setting": "[26]", "result": 8.63, "unit": "%"}, {"measurement": "remaining at 0.75 h, 1 µM", "setting": "[27]", "result": 3.58, "unit": "%"}, {"measurement": "half-life at 1 µM", "setting": "[28]", "result": 41.4, "unit": "min"}, {"measurement": "CLint scaled at 1 µM", "setting": "[29]", "result": 156, "unit": "mL/min/kg"}, {"measurement": "half-life at 1 µM", "setting": "[30]", "result": 12.9, "unit": "min"}, {"measurement": "Activity", "setting": "[31]", "result": "Non-Toxic"}, {"measurement": "Activity", "setting": "[32]", "result": "Non-Toxic"}, {"measurement": "Activity", "setting": "[33]", "result": "Non-Toxic"}, {"measurement": "IC50", "setting": "MDA-MB-435", "result": 9.17, "unit": "µM"}, {"measurement": "IC50", "setting": "HepG2", "result": 7.93, "unit": "µM"}]}]}
